# Source: US8436006B2, “2-amino-quinazoline derivatives useful as inhibitors of β-secretase (BACE)” (Jansssen Pharmaceutica N.V., priority 2004, dated 2013)
# Columns and labels:
# β-secretase (BACE) [1] = biological target: T1, β-secretase (BACE) (Homo sapiens, UniProt P56817); test: BACE % Inhibition Assay (Example 161), (Aedens)-[…]-(Dabcyl K-amide) substrate; type: biochemical; settings: % error ±10%
# T1 construct: purchased Panvera
# Description: The following reagents were used in this assay: sodium acetate, PEG8000 (Sigma), DMSO, HEPES, (Aedens)-[…]-(Dabcyl K-amide) substrate, β-secretase (BACE) (Panvera), and 96-well plate (HE microplate, Molecular Devices).
# The substrate stock solution was prepared in DMSO as a 10 mg/mL solution. The substrate working solution was prepared by diluting the 10 mg/mL stock solution with substrate assay buffer to a final concentration of 300 μg/mL. The β-secretase (BACE) working solution was prepared by diluting a 0.83 mg/mL BACE stock solution with enzyme assay buffer to a final concentration of 4 μg/mL.
# Test compounds were dissolved in DMSO to 10 mM.
# The screening procedure for this assay was as follows: 15 μL of BACE working solution was pipetted into each well of a 96-well plate. To each well was then pipetted 2 μL of test compound at the selected concentration. Test compound and BACE were then mixed with a pipettor and incubated for 20 min at room temperature. To each well was then added 10 μL of the substrate working solution. The plates were then incubated for 1 hour at room temperature.
# The procedure for the blank was as follows. 15 μL of assay buffer was pipetted into each well to be used as a blank control. To each well was then added 2 μL of vehicle and 10 μL of substrate working solution. The plates were then incubated for 1 hour at room temperature.
# The procedure for the positive control was as follows: 15 μl of BACE working solution was pipetted into each well to be used as a positive control. To each well was then pipetted 2 μL of vehicle. Vehicle and BACE were then mixed with a pipettor and incubated for 20 min at room temperature. To each well was then added 10 μL of the substrate working solution. The plates were then incubated for 1 hour at room temperature.
# For test compounds, % inhibition was determined at each concentration as follows: % Inhibition=[[…]][FI(positive control)−FI(negative control)]
# β-secretase (BACE) [2] = biological target: T1, β-secretase (BACE); test: BACE FS1% Inhibition Assay (Example 160); type: biochemical
# Description: The following reagents were used in this assay: sodium acetate, PEB8000 (Sigma), DMSO, HEPES, FS1 substrate [[…]], β-secretase (BACE) (Panvera), and 96-well plate (HE microplate, Molecular Devices). […] The FS1-substrate stock solution was prepared in DMSO as a 10 mg/mL solution. The FS1-substrate working solution was prepared by diluting the 10 mg/mL stock solution with substrate assay buffer to a final concentration of 300 μg/mL. The β-secretase (BACE) working solution was prepared by diluting a 0.83 mg/mL BACE stock solution with enzyme assay buffer to a final concentration of 4 μg/mL. Test compounds were dissolved in DMSO to 10 mM. […] The screening procedure for this assay was as follows: 15 μL of BACE working solution was pipetted into each well of a 96-well plate. To each well was the pipetted 2 μL of test compound at the selected concentration. Test compound and BACE were then mixed with a pipettor and incubated for 20 min at room temperature. To each well was then added 10 μL of the FS1 substrate working solution. The plates were then incubated for 1 hour at room temperature. […] The procedure for the blank was as follows. 15 μL of assay buffer was pipetted into each well to be used as a blank control. To each well was then added 2 μL of vehicle and 10 μL of FS1-substrate working solution. The plates were then incubated for 1 hour at room temperature. […] The procedure for the positive control was as follows: 15 μL of BACE working solution was pipetted into each well to be used as a positive control. To each well was then pipetted 2 μL of vehicle. Vehicle and BACE were then mixed with a pipettor and incubated for 20 min at room temperature. To each well was then added 10 μL of the FS1 substrate working solution. The plates were then incubated for 1 hour at room temperature. […] For test compounds, % inhibition was determined at each concentration as follows: [formula]
# T1 sequence (P56817 46-501): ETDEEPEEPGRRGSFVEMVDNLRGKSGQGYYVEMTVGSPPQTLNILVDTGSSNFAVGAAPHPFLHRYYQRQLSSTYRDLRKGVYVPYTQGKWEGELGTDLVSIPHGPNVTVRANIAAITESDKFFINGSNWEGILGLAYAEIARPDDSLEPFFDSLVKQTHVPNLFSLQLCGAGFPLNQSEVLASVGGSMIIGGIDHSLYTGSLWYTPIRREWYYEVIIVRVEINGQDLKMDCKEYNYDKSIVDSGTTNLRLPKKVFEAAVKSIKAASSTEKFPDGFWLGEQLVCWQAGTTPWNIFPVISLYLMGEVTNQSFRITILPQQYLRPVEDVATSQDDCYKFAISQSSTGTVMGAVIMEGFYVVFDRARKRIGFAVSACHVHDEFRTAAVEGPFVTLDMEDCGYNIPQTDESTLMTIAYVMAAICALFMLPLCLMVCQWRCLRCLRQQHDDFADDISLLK
Compound,% Inhibition (FS) (β-secretase (BACE) [2]; 0.3 μM test compound) [%],% Inhibition (FS) (β-secretase (BACE) [2]; 1 μM test compound) [%],% Inhibition (FS) (β-secretase (BACE) [2]; 3 μM test compound) [%],other results
CCCC(CNC(=O)OC(C)(C)C)N1Cc2cc(Oc3ccccc3)ccc2N=C1N (stereo not shown) [Compound 318],–,–,–,% Inhibition (β-secretase (BACE) [1]; 0.3 μM test compound): 32%; % Inhibition (β-secretase (BACE) [1]; 1 μM test compound): 70%; % Inhibition (β-secretase (BACE) [1]; 3 μM test compound): 103%
NC1=Nc2ccc(Oc3ccccc3)cc2CN1C(CNC(=O)C1CCCCC1)c1ccccc1 (stereo not shown) [Compound 342],–,–,–,% Inhibition (β-secretase (BACE) [1]; 0.3 μM test compound): 50%; % Inhibition (β-secretase (BACE) [1]; 1 μM test compound): 93%
CCCC(CNC(=O)C1CCCCC1)N1Cc2cc(Oc3ccccc3)ccc2N=C1N (stereo not shown) [Compound 343],–,–,–,% Inhibition (β-secretase (BACE) [1]; 0.3 μM test compound): 81%
NC1=Nc2ccc(Oc3ccccc3)cc2CN1C(CNC(=O)CCC1CCCC1)C1CCCCC1 (stereo not shown) [Compound 366],–,–,–,% Inhibition (β-secretase (BACE) [1]; 0.3 μM test compound): 64%
CC(C)CC(=O)NCC(C1CCCCC1)N1Cc2cc(Oc3ccccc3)ccc2N=C1N (stereo not shown) [Compound 389],–,–,–,% Inhibition (β-secretase (BACE) [1]; 0.3 μM test compound): 85%; % Inhibition (β-secretase (BACE) [1]; 1 μM test compound): 112%; % Inhibition (β-secretase (BACE) [1]; 3 μM test compound): 120%
NC1=Nc2ccc(Oc3ccccc3)cc2CN1C(CCNC(=O)C1CCCCC1)C1CCCCC1 (stereo not shown) [Compound 391],–,–,–,% Inhibition (β-secretase (BACE) [1]; 0.3 μM test compound): 35%; % Inhibition (β-secretase (BACE) [1]; 1 μM test compound): 93%; % Inhibition (β-secretase (BACE) [1]; 3 μM test compound): 115%
CC(=O)N1CCC(C(=O)NCCN2Cc3cc(-c4ccccc4)ccc3N=C2N)CC1 [Compound 702],<30,<30,<30,–
COC1CCCC(C(=O)NCCN2Cc3cc(-c4ccccc4)ccc3N=C2N)C1 (stereo not shown) [Compound 703],<30,46,83,–
NC1=Nc2ccc(C3=CCCCC3)cc2CN1CCNC(=O)C1CCC(C(F)(F)F)CC1 (stereo not shown) [Compound 704],<30,<30,<30,–
CC(=O)N1CCC(C(=O)NCCN2Cc3cc(C4=CCCCC4)ccc3N=C2N)CC1 [Compound 705],<30,<30,<30,–
COC1CCCC(C(=O)NCCN2Cc3cc(C4=CCCC4)ccc3N=C2N)C1 (stereo not shown) [Compound 706],<30,<30,<30,–
NC1=Nc2ccc(C3=CCCC3)cc2CN1CCNC(=O)C1CCC(C(F)(F)F)CC1 (stereo not shown) [Compound 707],<30,<30,<30,–
COc1ccccc1-c1ccc2c(c1)CN([C@@H](CCC(=O)N(C)Cc1csc(-c3ccccc3)n1)C1CCCCC1)C(N)=N2 [Compound 716],<30,<30,72,–
COc1ccccc1-c1ccc2c(c1)CN([C@@H](CCC(=O)N(C)Cc1cnn(-c3ccccc3)c1)C1CCCCC1)C(N)=N2 [Compound 717],33,39,72,–
COc1ccccc1-c1ccc2c(c1)CN([C@@H](CCC(=O)N(C)Cc1cc(C)no1)C1CCCCC1)C(N)=N2 [Compound 718],<30,30,–,–
COc1ccccc1-c1ccc2c(c1)CN([C@@H](CCC(=O)N(C)Cc1cc(-c3ccccc3)on1)C1CCCCC1)C(N)=N2 [Compound 719],31,<30,81,–
CN(Cc1csc(-c2ccccc2)n1)C(=O)CC[C@@H](C1CCCCC1)N1Cc2cc(-c3ccccc3F)ccc2N=C1N [Compound 722],35,35,78,–
CN(Cc1cc(-c2ccccc2)on1)C(=O)CC[C@@H](C1CCCCC1)N1Cc2cc(-c3ccccc3F)ccc2N=C1N [Compound 724],38,<30,65,–
CN(CCC#N)C(=O)CC[C@@H](C1CCCCC1)N1Cc2cc(-c3ccccc3F)ccc2N=C1N [Compound 725],33,74,126,–

Compound,% Inhibition (FS) (β-secretase (BACE) [2]; 0.3 μM test compound) [%],% Inhibition (FS) (β-secretase (BACE) [2]; 1 μM test compound) [%],% Inhibition (FS) (β-secretase (BACE) [2]; 3 μM test compound) [%],other results
CN(CCc1ccccc1)C(=O)CC[C@@H](C1CCCCC1)N1Cc2cc(-c3ccccc3F)ccc2N=C1N [Compound 727],46,80,–,–
CCOC(=O)C1CCC(N(C)C(=O)CCC(C2CCCCC2)N2Cc3cc(Oc4ccccc4)ccc3N=C2N)CC1 (stereo not shown) [Compound 737],–,–,–,"% Inhibition (FS) (β-secretase (BACE) [2]; 0.3 μM test compound, 0.3 µM): 22%; % Inhibition (FS) (β-secretase (BACE) [2]; 1 μM test compound, 1 µM): 34%; % Inhibition (FS) (β-secretase (BACE) [2]; 3 μM test compound, 3 µM): 97%"
CN(C(=O)CCC(C)(C)N1Cc2cc(Oc3ccccc3)ccc2N=C1N)C1CCCCC1 [Compound 738],14,28,61,–
CN(C(=O)CCC(C1CCCCC1)N1Cc2cc(Oc3ccccc3)ccc2N=C1N)C1(C(=O)O)CCCCC1 (stereo not shown) [Compound 741],−48,−38,−25,–
CN(C(=O)CCC(C1CCOCC1)N1Cc2cc(Oc3ccccc3)ccc2N=C1N)C1CCC(C(=O)O)CC1 (stereo not shown) [Compound 743],–,–,130,–
CN(C(=O)CC[C@@H](C1CCOCC1)N1Cc2cc(Oc3ccccc3)ccc2N=C1N)[C@H]1CC[C@H](C(=O)O)CC1 [Compound 746],85,104,112,–
CN(C(=O)CC[C@@H](C1CCCCC1)N1Cc2ccc(Oc3ccccc3)cc2N=C1N)C1CCCCC1 [Compound 754],8,35,89,–
CN(C(=O)CCC(C1CCCCC1)N1Cc2cc(Oc3ccccc3)ccc2N=C1N)C1CCC(C(=O)OCc2ccccc2)CC1 (stereo not shown) [Compound 760],<30,44,89,–
CCOC(=O)C1CCC(N(C)C(=O)CCC(C2CCCCC2)N2Cc3cc(Oc4ccccc4)ccc3N=C2N)CC1 (stereo not shown) [Compound 763],–,–,–,"% Inhibition (FS) (β-secretase (BACE) [2]; 0.3 μM test compound, 0.3 µM): <30%; % Inhibition (FS) (β-secretase (BACE) [2]; 1 μM test compound, 1 µM): 84%"
CNC(=O)C1CCC(N(C)C(=O)CCC(C2CCCCC2)N2Cc3cc(Oc4ccccc4)ccc3N=C2N)CC1 (stereo not shown) [Compound 765],<30,56,97,–
CN(C(=O)CCC(C1CCCCC1)N1Cc2cc(Oc3ccccc3)ccc2N=C1N)c1ccc(C(=O)O)cc1 (stereo not shown) [Compound 766],<30,<30,<30,–
CN(CC(=O)O)C(=O)CCC(C1CCCCC1)N1Cc2cc(Oc3ccccc3)ccc2N=C1N (stereo not shown) [Compound 767],<30,71,–,–
CN(C(=O)CCC(C1CCCCC1)N1Cc2cc(Oc3ccccc3)ccc2N=C1N)C1CCC(C#N)CC1 (stereo not shown) [Compound 769],<30,61,–,–
CN(C(=O)CCC(C1CCCCC1)N1Cc2cc(Oc3ccccc3)ccc2N=C1N)C1CCC(c2nn[nH]n2)CC1 (stereo not shown) [Compound 770],<30,<30,<30,–
COC(=O)Cc1cccc(CN(C)C(=O)CCC(C2CCCCC2)N2Cc3cc(Oc4ccccc4)ccc3N=C2N)c1 (stereo not shown) [Compound 775],<30,62,–,–
CN(Cc1cccc(CC(=O)O)c1)C(=O)CCC(C1CCCCC1)N1Cc2cc(Oc3ccccc3)ccc2N=C1N (stereo not shown) [Compound 778],<30,77,–,–
COC(=O)C(COCc1ccccc1)N(C)C(=O)CCC(C1CCCCC1)N1Cc2cc(Oc3ccccc3)ccc2N=C1N (stereo not shown) [Compound 780],69,97,–,–
COC(=O)[C@H](COCc1ccccc1)N(C)C(=O)CC[C@@H](C1CCOCC1)N1Cc2cc(Oc3ccccc3)ccc2N=C1N [Compound 786],97,–,–,–
